What was measured:
[1] = target: T1, binding of human MCP-1 to THP-1 cells (Homo sapiens, UniProt P41597); experiment: Inhibition of binding of [125I]-labeled baculovirus expressed human MCP-1 to THP-1 cells (Method 1); conditions: for inhibition at 10 µM: Method 1, at 10 μM
T1 construct: endogenous in cells; host or cells: THP-1 (human monocytic leukemia cell line), whole cells
T1 sequence (P41597 1-360 isoform P41597-2): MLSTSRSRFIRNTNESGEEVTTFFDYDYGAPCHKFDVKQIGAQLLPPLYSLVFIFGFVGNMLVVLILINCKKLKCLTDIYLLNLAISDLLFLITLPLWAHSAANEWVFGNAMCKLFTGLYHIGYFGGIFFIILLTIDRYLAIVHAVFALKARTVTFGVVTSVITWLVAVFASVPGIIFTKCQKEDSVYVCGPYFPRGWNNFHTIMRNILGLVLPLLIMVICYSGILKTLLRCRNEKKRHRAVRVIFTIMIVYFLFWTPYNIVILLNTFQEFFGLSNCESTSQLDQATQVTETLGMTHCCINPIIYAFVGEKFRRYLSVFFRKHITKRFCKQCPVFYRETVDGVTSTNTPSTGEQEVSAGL
Excerpt: Measurement of Inhibition of MCP-1 Binding to THP-1 Cells 1. Construction of recombinant baculovirus carrying the human MCP-1 gene Based on the previously published human MCP-1 gene sequence (for example T. Yoshirnura et al., FEBS Lett., 1989, 244, 487-493), two synthetic DNA primers ([NT] and [NT]) flanked by restriction enzyme sites were used to amplify a DNA fragment from cDNA derived from human endothelial cells (purchased from Kurabow Co.); the amplified fragment was cut with the restriction enzymes (PstI and XbaI), ligated into a transfer vector pVL1393 (Invitrogen Co.), and the resulting vector was co-transfected along with infectious baculovirus into Sf-9 insect cells and the supernatant was plaque assayed to yield human MCP-1 gene baculovirus recombinant. […] Using the method of K. Ishii et al. […] The culture supernatant was affinity purified using a heparin Sepharose column (Pharmacia Co.) and then further purified using reverse phase HPLC (Vydac C18 column) to prepare purified human MCP-1. […] 3-1. […] The test. compound was diluted in the assay buffer and used as the test compound solution. [^125I]-labeled human MCP-1 described above was diluted in assay buffer to 1 mCi/mL and used as the labeled ligand solution. In a 96 well filter plate (Millipore Co.), 25 μL of test compound solution, 25 μL of labeled ligand solution and 50 μL of cell suspension were aliquoted into each well in this order, stirred (total reaction volume 100 μL), and incubated for one hour at 18° C. After the reaction, the reaction solution was filtered, and the filter was washed twice with 200 μL of cold PBS (200 μL of cold PBS was added and then filtered). The filter was air-dried and 25 μL of liquid sciatillator was added into each well. The radioactivity retained by the cells on the filter were measured using TopCount (Packard Instrument Co.). To calculate the ability of test compound to inhibit binding of human MCP-1 to THP-1 cells, non-specific binding determined by adding 100 ng of unlabeled human MCP-1 in place of the test compound was subtracted, while the counts with no test compound added was taken as 100%. Inhibition (%)=(1-(A-B)/(C-B))×100 (A, counts with test compound added; B, counts with 100 ng of unlabeled human MCP-1 added; C, counts with [^125I]-labeled human MCP-1 added).

[2] = target: T1, binding of human MCP-1 to THP-1 cells; experiment: Inhibition of binding of [125I]-labeled baculovirus expressed human MCP-1 to THP-1 cells (Method 2); conditions: Method 2, at 1 μM
Excerpt: 1. Construction of recombinant baculovirus carrying the human MCP-1 gene
Based on the previously published human MCP-1 gene sequence (for example T. Yoshirnura et al., FEBS Lett., 1989, 244, 487-493), two synthetic DNA primers (5′-[…]-3′ and 5′-[…]-3′) flanked by restriction enzyme sites were used to amplify a DNA fragment from cDNA derived from human endothelial cells (purchased from Kurabow Co.); the amplified fragment was cut with the restriction enzymes (PstI and XbaI), ligated into a transfer vector pVL1393 (Invitrogen Co.), and the resulting vector was co-transfected along with infectious baculovirus into Sf-9 insect cells and the supernatant was plaque assayed to yield human MCP-1 gene baculovirus recombinant.
2. Synthesis of [^125I]-labeled human MCP-1 expressed in baculovirus
Using the method of K. Ishii et al. (Biochem Biophys Research Communications, 1995, 206, 955-961), 5×10^6 Sf-6 insect cells was infected with 5×10^7 PFU (plaque forming units) of the above human MCP-1 recombinant baculovirus and cultured for 7 days in Ex-Cell 401 medium. The culture supernatant was affinity purified using a heparin Sepharose column (Pharmacia Co.) and then further purified using reverse phase HPLC (Vydac C18 column) to prepare purified human MCP-1. The purified human MCP-1 was protein labeled by Amersham Co. using the Bolton Hunter method to yield [^125I]-labeled baculovirus expressed human MCP-1 (specific activity 2000 Ci/mmol).
3-2. Measurement of inhibition of binding of [^125I]-labeled baculovirus expressed human MCP-1 to THP-1 cells (Method 2)
Human monocytic leukemia cell line THP-1 was suspended in assay buffer (50 mM HEPES, pH 7.4, 1.0 mM CaCl2, 5.0% mM MgCl2, 0.5% BSA) to give a cell suspension of a concentration of 1×10^7 cells/mL. The test compound was diluted in the assay buffer and used as the test compound solution. [^125I]-labeled human MCP-1 described above was diluted in assay buffer to 1 mCi/mL and used as the labeled ligand solution. In a 96 well filter plate (Millipore Co.), 25 μL of test compound solution, 25 μL of labeled ligand solution and 50 μL of cell suspension were aliquoted into each well in this order, stirred (total reaction volume 100 μL), and incubated for one hour at 18° C.
After the reaction, the reaction solution was filtered, and the filter was washed twice with 200 μL of cold PBS (200 μL of cold PBS was added and then filtered). The filter was air-dried and 25 μL of liquid scintillator was added into each well. The radioactivity retained by the cells on the filter were measured using TopCount (Packard Instrument Co.).
To calculate the ability of test compound to inhibit binding of human MCP-1 to THP-1 cells, non-specific binding determined by adding 100 ng of unlabeled human MCP-1 in place of the test compound was subtracted, while the counts with no test compound added was taken as 100%.
Inhibition (%)={1−(A−B)/(C−B)}×100
(A, counts with test compound added; B, counts with 100 ng of unlabeled human MCP-1 added; C, counts with [^125I]-labeled human MCP-1 added).

Compound | inhibition at 1 µM [2] | further results
O=C(CNC(=O)c1cccc(C(F)(F)F)c1)N[C@H]1CCN(Cc2ccccc2)C1 [Compound No. 239, (S)-1-Benzyl-3-[N-{3-(trifluoromethyl)benzoyl}glycyl]aminopyrrolidine] |  | inhibition at 10 µM [1]: 20 to 50%
Cc1cccc(C(=O)NCC(=O)NC2CCCN(Cc3ccc(Cl)cc3)C2)c1 (stereo not drawn) [Compound No. 355, 1-(4-Chlorobenzyl)-3-[{N-(3-methylbenzoyl)glycyl}amino]piperidine] |  | inhibition at 100 µM ([1]; Method 1, at 100 μM): > 80%
O=C(CNC(=O)c1ccccc1)NCC1CCCN(Cc2ccc(Cl)cc2)C1 (stereo not drawn) [Compound No. 434, 3-{(N-Benzoylglycyl)amino}methyl-1-(4-chlorobenzyl)piperidine] |  | inhibition at 10 µM [1]: 50 to 80%
Nc1ccc(CN2CCC(CNC(=O)CNC(=O)c3cccc(C(F)(F)F)c3)CC2)cc1 [Compound No. 516, 1-(4-Aminobenzyl)-4-[{N-(3-(trifluoromethyl)benzoyl)glycyl}aminomethyl]piperidine] |  | inhibition at 10 µM [1]: 20 to 50%
O=C(CNC(=O)c1cccc(C(F)(F)F)c1)NCC1CCN(Cc2ccc(NC(=O)c3ccccc3)cc2)CC1 [Compound No. 519, 1-{4-(Benzoylamino)benzyl}-4-[{N-(3-(trifluoromethyl)benzoyl)glycyl}aminomethyl]piperidine] |  | inhibition at 10 µM [1]: 20 to 50%
CCOc1ccc(CN2CCC(CNC(=O)CNC(=O)c3cc(Cl)ccc3N)CC2)cc1 [Compound No. 1429, 4-[{-(2-Amino-5-chlorobenzoyl)glycyl}aminomethyl]-1-(4-ethoxybenzyl)piperidine] | 20 to 50% | 
CS(=O)(=O)N(c1ccc(Br)cc1C(=O)NCC(=O)NCC1CCN(Cc2ccc(Cl)cc2)CC1)S(C)(=O)=O [Compound No. 1582, 4-[{N-(5-Bromo-2-(bis(methylsulfonyl)amino)benzoyl)glycyl}aminomethyl]-1-(4-chlorobenzyl)piperidine] | 20 to 50% | 
Nc1ccc(Cl)cc1C(=O)NCC(=O)NCC1CCN(Cc2ccc(SC(F)(F)F)cc2)CC1 [Compound No. 1616, 4-[{N-(2-Amino-5-chlorobenzoyl)glycyl}aminomethyl]-1-{4-(trifluoromethylthio)benzyl}piperidine] | 20 to 50% | 
CC(C)c1ccc(CN2CCC(CNC(=O)CNC(=O)c3cc(OC(F)(F)F)ccc3N)CC2)cc1 [Compound No. 1903, 4-[{N-(2-Amino-5-trifluoromethoxybenzoyl)glycyl}aminomethyl]-1-(4-isopropylbenzyl)piperidine] | 50 to 80% | 
Nc1ccc(OC(F)(F)F)cc1C(=O)NCC(=O)NCC1CCN(Cc2ccc(Br)cc2)CC1 [Compound No. 1910, 4-[{N-(2-Amino-5-trifluoromethoxybenzoyl)glycyl}aminomethyl]-1-(4-bromobenzyl)piperidine] | 50 to 80% | 
CCOc1ccc(CN2CCC(CNC(=O)CNC(=O)c3cc(F)c(F)cc3N)CC2)cc1OCC [Compound No. 2065, 4-[{N-(2-amino-4,5-difluorobenzoyl)glycyl}aminomethyl]-1-(3,4-diethoxybenzyl)piperidine] | 20 to 50% | 
COc1ccc(CN2CCC(CNC(=O)CNC(=O)c3cc(F)c(F)cc3N)CC2)cc1N [Compound No. 2113, 4-[{N-(2-amino-4,5-difluorobenzoyl)glycyl}aminomethyl]-1-(3-amino-4-methoxybenzyl)piperidine] | > 80% | 
Nc1ccc(C(F)(F)F)cc1C(=O)NCC(=O)N[C@@H]1CCN(Cc2ccc(Br)cc2F)C1 [Compound No. 2120, (R)-3-[{N-(2-Amino-5-trifluoromethylbenzoyl)glycyl}amino]-1-(4-bromo-2-fluorobenzyl)pyrrolidine] | > 80% | 
Nc1cc2c(cc1CN1CC[C@@H](NC(=O)CNC(=O)c3cc(C(F)(F)F)ccc3N)C1)OCO2 [Compound No. 2127, (R)-1-(2-Amino-4,5-methylenedioxybenzyl)-3-[{N-(2-amino-5-trifluoromethylbenzoyl)glycyl}amino]pyrrolidine] | > 80% | 
Nc1cc(CN2CC[C@@H](NC(=O)CNC(=O)c3cc(C(F)(F)F)ccc3N)C2)ccc1O [Compound No. 2187, (R)-1-(3-Amino-4-hydroxybenzyl)3-[{N-(2Amino-5-trifluoromethylbenzoyl)glycyl}amino]pyrrolidine] | > 80% | 

Further lines, with some results ahead:

inhibition at 1 µM [2] | Compound | further results
20 to 50% | Cc1ccc(C(=O)NCC(=O)N[C@@H]2CCN(Cc3ccc(Cl)cc3)C2)cc1Br [Compound No. 1098, (R)-1-(4-Chlorobenzyl)-3-[{N-(3-bromo-4-methylbenzoyl)glycyl}amino]pyrrolidine] | 
20 to 50% | O=C(CNC(=O)c1cccc(C(F)(F)F)c1)NCC1CCN(Cc2ccc(Cl)cc2)C1 (stereo not drawn) [Compound No. 1463, 3-[{N-(3-Trifluoromethylbenzoyl)glycyl}aminomethyl]-1-(4-chlorobenzyl)pyrrolidine] | 
50 to 80% | Nc1cc(F)c(F)cc1C(=O)NCC(=O)NCC1CCN(Cc2ccc(Cl)cc2)C1 (stereo not drawn) [Compound No. 1506, 3-[{N-(2-Amino-4,5-difluorobenzoyl)glycyl}aminomethyl]-1-(4-chlorobenzyl)pyrrolidine] | 
20 to 50% | CS(=O)(=O)Nc1ccc(Br)cc1C(=O)NCC(=O)NCC1CCN(Cc2ccc(Cl)cc2)CC1 [Compound No. 1581, 4-[{N-(5-Bromo-2-(methylsulfonylamino)benzoyl)glycyl}aminomethyl]-1-(4-chlorobenzyl)piperidine] | 
50 to 80% | Nc1ccc(OC(F)(F)F)cc1C(=O)NCC(=O)N[C@@H]1CCN(Cc2ccc(Cl)cc2Cl)C1 [Compound No. 1905, (R)-3-[{N-(2-Amino-5-(trifluoromethoxy)benzoyl)glycyl}amino]-1-(2,4-dichlorobenzyl)pyrrolidine] | 
> 80% | CN(C)c1cc(CN2CC[C@@H](NC(=O)CNC(=O)c3cc(C(F)(F)F)ccc3N)C2)ccc1Cl [Compound No. 2133, (R)-3-[{N-(2-Amino-5-trifluoromethylbenzoyl)glycyl}amino]-1-{4-chloro-3-(dimethylamino)benzyl}pyrrolidine] | 
